Data on 4 compounds can be found in ChEMBL document CHEMBL1201862, “PubChem BioAssay data set” (2004).

Common to all, as to assay: inhibition of tumour cell growth, NCI panel, 48 h
Test [1] has as its system A498.
Test [2] relates to ACHN.
For test [3], the system named is CAKI-1.
For test [4], the system named is CCRF-CEM.
The test system of test [5] is HCC 2998.
The test system of test [6] is HCT-116.
In test [7] the test system is HOP-62.
Test [8] has as its system KM12.
Test [9] concerns M14.
For test [10], the system named is MDA-MB-231.
Test [11] has as its system NCI-H522.
Test [12] relates to OVCAR-8.
Test [13] deals with RXF 393.
For test [14], the system named is SF-268.
The test system of test [15] is SF-295.
Test [16] has as its system SF-539.
The test system of test [17] is SK-MEL-2.
Test [18] has as its system SW-620.
In test [19] the test system is U-251.
The test system of test [20] is UACC-62.

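Values below derive from 48-hour exposures of cells grown in 96-well plates, with endpoints linearly interpolated between the two concentrations bracketing the appropriate inhibition level. Here, GI50 denotes the concentration required for 50% inhibition of growth.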 Activity calls are given as the source filed them. Cut-off read from the data, not from the text of the source: active = GI50 up to about 1.1 µM and inactive = higher.

For `O=[N+]([O-])C1=Cc2c(O)ccc(O)c2C2c3ccccc3NC12` (stereo not given), the GI50 was 14.7 µM (inactive) in test [1]; 5.83 µM (inactive) in test [2]; 4.36 µM (inactive) in test [3]; 3.88 µM (inactive) in test [4]; 7.52 µM (inactive) in test [5]; 9.16 µM (inactive) in test [6]. The GI50 is 11.3 µM (inactive) in test [7]; 9.04 µM (inactive) in [8]; 13.2 µM (inactive) in test [9]; 13.6 µM (inactive) in [10]; 2.45 µM (inactive) in test [11]; 5.82 µM (inactive) in [12]. The GI50 was 13.2 µM (inactive) in test [13]; 16.7 µM (inactive) in test [14]; 13.2 µM (inactive) in [15]; 30.9 µM (inactive) in test [16]; 16.9 µM (inactive) in [17]; 9.1 µM (inactive) in test [18]. The GI50 in [19] was 12.9 µM (inactive); in test [20], 6.32 µM (inactive).
Turning to `C/C(=N\NC(=S)N1CCN(c2ccccn2)CC1)c1ncccn1`, the GI50 in test [1] was 2.07 µM (inactive); in [2], 0.0693 µM (active); in [3], 1.76 µM (inactive); in test [4] it was 0.00615 µM (active); in test [5], 0.361 µM (active); in test [6] it was 0.00395 µM (active). Moreover, the GI50 in test [7] was 0.106 µM (active); in [8], 0.254 µM (active); in test [9], 0.0515 µM (active); in test [10] it was 0.0214 µM (active); in test [11] it was 0.0538 µM (active); in [12] it was 0.0289 µM (active). Further, the GI50 in test [13] was 1.65 µM (inactive); in [14] it was 0.0323 µM (active); in [15], 0.0594 µM (active); in test [16] it was 0.527 µM (active); in [17], 0.31 µM (active); in test [18] it was 0.196 µM (active). Moreover, the GI50 in [19] was 0.0369 µM (active); in [20] it was 0.0344 µM (active).
`CCOC(=O)N1CCN(Cc2cc(=O)n3ccc(C)cc3n2)CC1`: the GI50 in test [1], in test [2], in test [3], in test [4], in test [5] and in test [6] was > 100 µM (inactive) each time. Further, the GI50 in test [7], in [8], in test [9], in test [10], in [11] and in test [12] was > 100 µM (inactive) each time. In addition, the GI50 in test [13], in test [14], in [15], in test [16], in test [17] and in test [18] was > 100 µM (inactive) in each case. In addition, the GI50 in [19] and in [20] was > 100 µM (inactive) throughout.
Consider `CCN(CC)c1c(C(C)(C)C)c(=O)n2ccsc2c1OC(C)=O`, for which the GI50 is 19.2 µM (inactive) in test [1]; 16.2 µM (inactive) in test [2]; 18.6 µM (inactive) in test [3]; 49 µM (inactive) in [4]; 17.4 µM (inactive) in test [5]; 13.6 µM (inactive) in test [6]. The GI50 was 13.3 µM (inactive) in test [7]; 15.5 µM (inactive) in test [8]; 17.3 µM (inactive) in test [9]; 17.8 µM (inactive) in [10]; 13.4 µM (inactive) in test [11]; 15 µM (inactive) in test [12]. Also, the GI50 is 16.9 µM (inactive) in test [13]; 15.2 µM (inactive) in test [14]; 17.1 µM (inactive) in test [15]; 19.1 µM (inactive) in [16]; 17.1 µM (inactive) in test [17]; 16.9 µM (inactive) in test [18]. Further, the results for the GI50 in [19] and in test [20] were 17 µM (inactive) and 16.9 µM (inactive), respectively.
